Test results as given in patent US20080139664A1, “ANTI-GLYCATION AGENTS FOR PREVENTING AGE-, DIABETES-, AND SMOKING-RELATED COMPLICATIONS” (NATIONAL RESEARCH COUNCIL OF CANADA, priority 2001, published 2008).
Read-outs that look alike come from different tables or passages of the source.

Columns and labels:
[1] = test system: bovine serum albumin (BSA); experiment: Fluorescamine assay of free primary amino groups of BSA incubated with D-ribose; type: biochemical; conditions: free primary amino group on BSA after 5 days at 37° C.; agent at 16.8 times IC50; 64% without agent
lysozyme = experiment: ESI-MS of lysozyme glycoforms after incubation with D-ribose;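 further: lysozyme incubated with D-ribose, with or without anti-glycation agents, then separated by reversed-phase HPLC and analysed by electrospray mass spectrometry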
Protocol: The effect of anti-glycation agents on the accumulation of glycated forms (glycoforms) of protein was evaluated by using electrospray mass spectrometry (ESI-MS). As the molecular mass of BSA was too large to monitor the small mass changes of its glycoforms, lysozyme was incubated with D-ribose and anti-glycants. Lysozyme and its glycoforms were isolated by RP-HPLC and analyzed by mass spectrometry.
Samples of lysozyme (0.756 mM; 4.54 mM of Lys residues) and D-ribose (50 mM) were incubated in the presence and absence of the selected anti-glycation agents at 37° C. for 5 days and subjected to electrospray mass spectrometry (ESI-MS) in order to characterize the protein intermediates as well as carboxymethylated lysozyme. Prior to MS measurements, the proteins were isolated by reversed phase-HPLC and were semi-dried by freeze drying.

[2] = test system: bovine serum albumin (BSA); experiment: SDS-PAGE assessment of BSA-BSA protein cross-links; type: biochemical; conditions: mixtures further incubated for 4 weeks; further: key: ++: strongly suppressed; +: suppressed; −: no suppression; *: moderate acceleration of the cross-linking
Protocol: Additionally, protein cross-links were semi-quantitatively assessed by SDS PAGE gel chromatography.
Protein-protein cross-links were characterized by SDS-PAGE. The incubation mixtures used for determination of the amino groups were further incubated for 4 weeks. An aliquot of the solution was applied to Pharmacia SDS FAST gel and the proteins were stained with Coomassie blue.

[3] = test system: bovine serum albumin (BSA)
Protocol: (§1) During the glycation reaction between proteins and reducing sugars, a specific fluorescence with excitation and emission wavelength of 370 nm and 440 nm, respectively, is observed. […] The assay was based on the progressive development of the characteristic Maillard fluorescence (370 nm Ex and 440 nm Em) during the progress of the glycation reaction.
(§2) The final assay volume was 200 μl and each assay well contained 0.075 mM BSA, and 50 mM D-ribose. Compounds were assayed at 3 different concentration levels (0.003, 0.03, and 0.3 mg/mL) to determine the effect of concentration on inhibition. Samples were incubated for 5 days.
(§3) The Maillard fluorescence was directly measured from the reaction solution, except for the anti-glycants that quenched the Maillard fluorescence, which were analyzed by the earlier-described HPLC method.
(§4) Solutions were incubated in microtitre plates (96 wells) at 37° C. for 5 days in a closed system.
(§5) After one hour incubation at 37° C., fluorescence readings were taken.
(§6) The IC50 values of the compounds that quenched the fluorescence of the glycated BSA were analyzed by on-line monitoring of the fluorescence of the glycated BSA separated from the fluorescence quenching assay compound by RP-HPLC. The elution profile was monitored by UV-diode array and by fluorescence (λex=370 nm, λem=440 nm). […] The incubation conditions were the same as above.

[4] = test system: bovine serum albumin (BSA); experiment: Maillard fluorescence-based assay of AGEs formation, IC50 determination (BSA + D-ribose); conditions: inhibition of Maillard fluorescence development; 0.075 mM BSA, 50 mM D-ribose, 37° C., 5 days
Protocol: as §1, §2, §3, §4, §5, §6

human eye = conditions: topical administration of up to 20%; cited from earlier work
dopaminergic neurons = conditions: cited from earlier work
[5] = FIG. 2, in words, 37° C., 5 days
[6] = lysozyme + 2D-ribose − 2H2O (14,569 Da), 37° C., 5 days
[7] = lysozyme + 2D-ribose − 3H2O (14,551 Da), 37° C., 5 days
[8] = lysozyme + 2D-ribose − 5H2O (14,533 Da), 37° C., 5 days
[9] = lysozyme + 2D-ribose − 6H2O (14,515 Da), 37° C., 5 days
[10] = lysozyme + D-ribose − 2H2O (14,419 Da), 37° C., 5 days
[11] = lysozyme + D-ribose − 3H2O (14,401 Da), 37° C., 5 days
[12] = lysozyme + D-ribose − H2O (14,437 Da), 37° C., 5 days
[13] = lysozyme + D-ribose − H2O with one carboxymethylated Lys residue (14,496 Da), 37° C., 5 days
[14] = lysozyme with one carboxymethylated Lys residue (14,364 Da), 37° C., 5 days
[15] = unmodified lysozyme (14,305 Da), 37° C., 5 days

| IC50 [3] [µM] | SMILES | Unreacted amino group [1] [%] | Peak area as % of total area of all glycoforms, 14,569 (lysozyme; [6]) [%] | Peak area as % of total area of all glycoforms, 14,551 (lysozyme; [7]) [%] | Peak area as % of total area of all glycoforms, 14,533 (lysozyme; [8]) [%] | Peak area as % of total area of all glycoforms, 14,515 (lysozyme; [9]) [%] | Peak area as % of total area of all glycoforms, 14,419 (lysozyme; [10]) [%] | Peak area as % of total area of all glycoforms, 14,401 (lysozyme; [11]) [%] | Peak area as % of total area of all glycoforms, 14,437 (lysozyme; [12]) [%] | Peak area as % of total area of all glycoforms, 14,496 (lysozyme; [13]) [%] | Peak area as % of total area of all glycoforms, 14,364 (lysozyme; [14]) [%] | Peak area as % of total area of all glycoforms, 14,305 (lysozyme; [15]) [%] | Suppression of BSA-BSA cross-links [2] | also measured |
| --- | --- | --- | --- | --- | --- | --- | --- | --- | --- | --- | --- | --- | --- | --- |
| 18 | CNC[C@H](O)c1ccc(O)c(O)c1 [L-Epinephrine] | 69 | 1.7 | 0.0 | 0.0 | 0.0 | 2.0 | 0.8 | 15.3 | 1.0 | 4.8 | 74.5 | ++ | amount of (AP-H2O) glycoform of lysozyme (lysozyme; [5]): reduced; amount of AP glycoform of lysozyme (lysozyme; [5]): reduced |
| – | Cc1cc(-c2ccc(/N=N/c3c(S(=O)(=O)O)cc4cc(S(=O)(=O)O)cc(N)c4c3O)c(C)c2)ccc1/N=N/c1c(S(=O)(=O)O)cc2cc(S(=O)(=O)O)cc(N)c2c1O [Trypan blue] | 60 | 4.6 | 3.4 | 1.9 | 1.6 | 5.6 | 3.0 | 20.2 | 2.1 | 3.7 | 49.8 | + | IC50 [4]: 240 µM |
| – | CCC(NC(C)C)C(O)c1ccc(O)c(O)c1 (stereo not shown) [Isoetharine] | 70 | 1.6 | 0.7 | 0.9 | 0.9 | 1.6 | 1.3 | 14.3 | 1.4 | 3.9 | 73.4 | + | IC50 [4]: 25 µM |
| – | CC(C)NCC(O)c1ccc(O)c(O)c1.Cl [D-isoproterenol hydrochloride] | – | – | – | – | – | – | – | – | – | – | – | – | effect on intra-ocular pressure (human eye): did not lower intra-ocular pressure |
| – | N=C(N)NN [Aminoguanidine] | 68 | 5.7 | 1.2 | 1.1 | 0.7 | 2.6 | 2.1 | 26.2 | 1.4 | 3.2 | 54.5 | + | amount of (AP-H2O) glycoform of lysozyme (lysozyme; [5]): reduced; IC50 [4]: 345 µM |
| – | NC[C@H](O)c1ccc(O)c(O)c1 [noradrenaline] | – | – | – | – | – | – | – | – | – | – | – | – | EC50 (dopaminergic neurons; read-out: EC50, reduction of oxidative stress related to glycation): ~0.3 µM; concentrations of intracellular reactive oxygen species (dopaminergic neurons; treatment with 1 μM): drastically reduced |
| 19 | CN(C)[C@@H]1C(O)=C(C(N)=O)C(=O)[C@@]2(O)C(O)=C3C(=O)c4c(O)ccc(Cl)c4[C@@H](O)[C@H]3C[C@@H]12 [Demeclocycline] | 69 | 1.4 | 0.0 | 0.0 | 0.0 | 3.0 | 1.9 | 13.7 | 0.0 | 4.2 | 75.2 | + | – |
| 600 | CN1CCCN=C1/C=C/c1cccc(O)c1 [Oxantel] | 55 | 3.1 | 2.0 | 1.7 | 1.1 | 5.6 | 3.7 | 17.4 | 1.7 | 5.4 | 57.7 | + | – |
| 66 | NC[C@H](O)c1ccc(O)c(O)c1 [D-Norepinephrine] | 67 | 1.0 | 0.0 | 0.0 | 0.0 | 1.9 | 1.9 | 12.1 | 0.7 | 5.0 | 77.3 | + | – |

| SMILES | IC50 [3] [µM] | Unreacted amino group [1] [%] | Peak area as % of total area of all glycoforms, 14,569 (lysozyme; [6]) [%] | Peak area as % of total area of all glycoforms, 14,551 (lysozyme; [7]) [%] | Peak area as % of total area of all glycoforms, 14,533 (lysozyme; [8]) [%] | Peak area as % of total area of all glycoforms, 14,515 (lysozyme; [9]) [%] | Peak area as % of total area of all glycoforms, 14,419 (lysozyme; [10]) [%] | Peak area as % of total area of all glycoforms, 14,401 (lysozyme; [11]) [%] | Peak area as % of total area of all glycoforms, 14,437 (lysozyme; [12]) [%] | Peak area as % of total area of all glycoforms, 14,496 (lysozyme; [13]) [%] | Peak area as % of total area of all glycoforms, 14,364 (lysozyme; [14]) [%] | Peak area as % of total area of all glycoforms, 14,305 (lysozyme; [15]) [%] | Suppression of BSA-BSA cross-links [2] | also measured |
| --- | --- | --- | --- | --- | --- | --- | --- | --- | --- | --- | --- | --- | --- | --- |
| O=C1c2c(O)ccc(O)c2C(=O)c2c(NCCNCCO)ccc(NCCNCCO)c21 [Mitoxantrone] | 630 | 50 | 5.9 | 3.6 | 1.3 | 0.8 | 6.5 | 1.9 | 25.2 | 1.0 | 1.6 | 49.8 | + | – |
| Oc1cccc2cccnc12 [8-Hydroxyquinoline] | 95 | 55 | – | – | – | – | – | – | – | – | – | – | + | Peak area as % of total area of all glycoforms, 14,305 (lysozyme): 67.8%; Peak area as % of total area of all glycoforms, 14,364 (lysozyme): 4.2%; Peak area as % of total area of all glycoforms, 14,401 (lysozyme): 5.8%; Peak area as % of total area of all glycoforms, 14,419 (lysozyme): 3.6%; Peak area as % of total area of all glycoforms, 14,437 (lysozyme): 9.0%; Peak area as % of total area of all glycoforms, 14,496 (lysozyme): 1.7%; Peak area as % of total area of all glycoforms, 14,515 (lysozyme): 1.7%; Peak area as % of total area of all glycoforms, 14,533 (lysozyme): 1.6%; Peak area as % of total area of all glycoforms, 14,551 (lysozyme): 1.5%; Peak area as % of total area of all glycoforms, 14,569 (lysozyme): 2.3% |
| O=S(=O)(O)c1ccc(O)c2ncccc12 [8-Hydroxyquinoline-5-sulfonic acid] | 560 | 76 | 5.2 | 0.9 | 1.0 | 0.5 | 3.2 | 2.0 | 27.9 | 0.0 | 0.7 | 58.0 | ++ | – |
